Data taken from patent US8183233B2, “Stable pharmaceutical formulations” (Baxter International Inc., priority 2008, dated 2012).
Where two headings read alike, the source gives them in different places. Each block holds one compound with its values, some of them ahead of it.

Key:
[1] = Predicted shelf-life (t90) of meropenem from degradation kinetics; assay type: physicochemical
Description: The stability and degradation kinetics of meropenem have been studied. Meropenem is predicted to have a shelf-life (t90) of about 0.5 day at 0° C. Extrapolated to −25° C., the predicted shelf-life is less than one month. Meropenem also polymerizes at higher drug concentration by a second-order mechanism. If one requires a meropenem formulation that is ready-to-use, there is value in being able to stabilize these compounds in frozen aqueous media.

[2] = stored at or below −20° C.; cited from earlier work
[3] = 10 mL concentrate in 250 mL infusion diluent, cited from earlier work

Predicted shelf-life (t90) ([1]; at 0° C.): about 0.5 day | Predicted shelf-life ([1]; extrapolated to −25° C.): less than one
SMILES: C[C@@H](O)[C@H]1C(=O)N2C(C(=O)O)=C(S[C@@H]3CN[C@H](C(=O)N(C)C)C3)[C@H](C)[C@H]12 [Meropenem]

SMILES: CO/N=C(\C(=O)N[C@@H]1C(=O)N2C(C(=O)O)=C(CSc3nc(=O)c(=O)[nH]n3C)CS[C@H]12)c1csc(N)n1 [ceftriaxone sodium]
Time for which the frozen agent is stable [2]: at least 18 months

SMILES: CCC(C)CC(C)CCCCCCCCC(=O)N[C@H]1C[C@@H](O)[C@@H](NCCN)NC(=O)[C@@H]2[C@@H](O)CCN2C(=O)[C@H]([C@H](O)CCN)NC(=O)[C@H]([C@H](O)[C@@H](O)c2ccc(O)cc2)NC(=O)[C@@H]2C[C@@H](O)CN2C(=O)[C@H]([C@@H](C)O)NC1=O (some centres unmarked) [Caspofungin, Caspofungin acetate]
Time within which the infusion solution must be used ([3]; stored at ≦25° C.): ≤ 24 h | Time within which the infusion solution must be used ([3]; stored refrigerated at 2 to 8° C.): ≤ 48 h
